From patent US10508120B2, “TYK2 inhibitors and uses thereof” (Nimbus Lakshmi, Inc., priority 2017, dated 2019)

Columns and labels:
[1] = target: JAK2/JAK2 homdimeric complex (Homo sapiens (Human), UniProt O60674); assay: GM-CSF Induced pSTAT5 in Human PBMC; assay type: cell-based; conditions: GM-CSF 5 ng/mL for 20 minutes, pSTAT5 by MSD, read-out: PBMC_GMCSF_pSTAT5 IC50
JAK2 kinase domain (JH1) = JAK2 kinase domain (JH1) (Homo sapiens (Human), UniProt O60674); assay: JAK2 Radioactive Kinase Assay; assay type: biochemical; conditions: 10 μM compound, 10 μM ATP; for inhibition at 10 µM: read-out: JAK2 JH1% Inhibition @ 10 μM
How it was run: (§1)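 Compounds were tested at a single concentration of 10 μM in a radiometric kinase format against each isolated kinase domain. Activity is reported as percent inhibition at that concentration.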

Tyk2 kinase domain (DH1) = Tyk2 kinase domain (DH1) (Homo sapiens (Human), UniProt P29597); assay: Tyk2 Radioactive Kinase Assay; assay type: biochemical; conditions: 10 μM compound, 10 μM ATP; for inhibition at 10 µM: read-out: Tyk2 JH1% Inhibition @ 10 μM
How it was run: as §1

[2] = target: human TYK2 (JH2domain-pseudokinase) (Homo sapiens (Human), UniProt P29597); assay: TYK2 JH2 Domain Binding Assay (KINOMEscan)
How it was run: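 The construct was human TYK2 G556–D888 fused to the NFkB DNA-binding domain and expressed in HEK293 cells; unpurified extract was incubated with compound and liganded beads for 1 hour at room temperature.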

human TYK2 (JH2domain-pseudokinase), sequence (P29597 556-888): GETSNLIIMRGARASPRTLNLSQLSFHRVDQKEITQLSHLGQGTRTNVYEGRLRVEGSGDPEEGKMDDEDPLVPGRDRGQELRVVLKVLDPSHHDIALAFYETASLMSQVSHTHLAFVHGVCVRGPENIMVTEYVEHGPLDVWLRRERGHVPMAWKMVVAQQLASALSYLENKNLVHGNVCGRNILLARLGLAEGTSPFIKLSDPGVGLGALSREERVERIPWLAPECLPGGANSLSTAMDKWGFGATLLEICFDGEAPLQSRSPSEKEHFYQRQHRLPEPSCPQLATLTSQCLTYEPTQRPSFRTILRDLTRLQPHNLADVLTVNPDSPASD
JAK2 kinase domain (JH1), sequence (O60674 849-1124): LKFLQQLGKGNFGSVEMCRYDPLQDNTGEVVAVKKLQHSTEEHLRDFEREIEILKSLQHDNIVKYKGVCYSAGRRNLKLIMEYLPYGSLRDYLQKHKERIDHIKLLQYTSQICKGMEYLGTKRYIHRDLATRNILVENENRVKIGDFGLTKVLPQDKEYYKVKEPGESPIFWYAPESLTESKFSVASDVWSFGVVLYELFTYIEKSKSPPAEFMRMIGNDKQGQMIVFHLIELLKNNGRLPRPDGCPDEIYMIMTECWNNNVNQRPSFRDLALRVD
JAK2/JAK2 homdimeric complex, sequence (O60674 whole entry, the tested form may be a part): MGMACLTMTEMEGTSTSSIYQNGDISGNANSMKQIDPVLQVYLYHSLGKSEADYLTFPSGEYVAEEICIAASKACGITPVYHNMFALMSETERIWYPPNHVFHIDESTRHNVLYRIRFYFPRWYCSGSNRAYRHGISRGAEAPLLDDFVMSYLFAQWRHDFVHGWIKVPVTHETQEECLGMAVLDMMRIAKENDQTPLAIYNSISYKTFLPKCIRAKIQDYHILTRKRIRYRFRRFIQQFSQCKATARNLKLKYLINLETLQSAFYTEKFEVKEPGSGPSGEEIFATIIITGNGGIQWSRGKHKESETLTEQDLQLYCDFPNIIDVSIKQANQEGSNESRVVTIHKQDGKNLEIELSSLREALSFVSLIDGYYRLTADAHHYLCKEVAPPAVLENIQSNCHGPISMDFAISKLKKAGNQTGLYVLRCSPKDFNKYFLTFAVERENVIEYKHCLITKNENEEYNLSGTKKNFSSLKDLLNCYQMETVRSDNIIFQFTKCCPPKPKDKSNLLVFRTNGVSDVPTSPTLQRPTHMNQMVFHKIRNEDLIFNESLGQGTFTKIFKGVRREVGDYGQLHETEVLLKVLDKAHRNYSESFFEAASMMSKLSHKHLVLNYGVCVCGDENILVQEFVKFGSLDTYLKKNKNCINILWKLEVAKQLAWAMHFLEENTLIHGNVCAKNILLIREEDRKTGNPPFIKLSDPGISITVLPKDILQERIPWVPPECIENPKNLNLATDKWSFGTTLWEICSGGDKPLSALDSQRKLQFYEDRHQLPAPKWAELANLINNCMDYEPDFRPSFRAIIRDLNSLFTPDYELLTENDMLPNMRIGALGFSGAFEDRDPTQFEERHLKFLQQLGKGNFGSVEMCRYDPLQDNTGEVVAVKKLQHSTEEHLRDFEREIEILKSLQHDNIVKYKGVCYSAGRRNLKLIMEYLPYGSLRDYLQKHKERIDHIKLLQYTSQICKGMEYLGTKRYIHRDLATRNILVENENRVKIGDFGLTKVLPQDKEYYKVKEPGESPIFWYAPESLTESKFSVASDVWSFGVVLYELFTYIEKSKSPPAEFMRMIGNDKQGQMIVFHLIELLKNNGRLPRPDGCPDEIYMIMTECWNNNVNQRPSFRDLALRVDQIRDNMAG
JAK2/JAK2 homdimeric complex, sequence (P32927 17-897 partner): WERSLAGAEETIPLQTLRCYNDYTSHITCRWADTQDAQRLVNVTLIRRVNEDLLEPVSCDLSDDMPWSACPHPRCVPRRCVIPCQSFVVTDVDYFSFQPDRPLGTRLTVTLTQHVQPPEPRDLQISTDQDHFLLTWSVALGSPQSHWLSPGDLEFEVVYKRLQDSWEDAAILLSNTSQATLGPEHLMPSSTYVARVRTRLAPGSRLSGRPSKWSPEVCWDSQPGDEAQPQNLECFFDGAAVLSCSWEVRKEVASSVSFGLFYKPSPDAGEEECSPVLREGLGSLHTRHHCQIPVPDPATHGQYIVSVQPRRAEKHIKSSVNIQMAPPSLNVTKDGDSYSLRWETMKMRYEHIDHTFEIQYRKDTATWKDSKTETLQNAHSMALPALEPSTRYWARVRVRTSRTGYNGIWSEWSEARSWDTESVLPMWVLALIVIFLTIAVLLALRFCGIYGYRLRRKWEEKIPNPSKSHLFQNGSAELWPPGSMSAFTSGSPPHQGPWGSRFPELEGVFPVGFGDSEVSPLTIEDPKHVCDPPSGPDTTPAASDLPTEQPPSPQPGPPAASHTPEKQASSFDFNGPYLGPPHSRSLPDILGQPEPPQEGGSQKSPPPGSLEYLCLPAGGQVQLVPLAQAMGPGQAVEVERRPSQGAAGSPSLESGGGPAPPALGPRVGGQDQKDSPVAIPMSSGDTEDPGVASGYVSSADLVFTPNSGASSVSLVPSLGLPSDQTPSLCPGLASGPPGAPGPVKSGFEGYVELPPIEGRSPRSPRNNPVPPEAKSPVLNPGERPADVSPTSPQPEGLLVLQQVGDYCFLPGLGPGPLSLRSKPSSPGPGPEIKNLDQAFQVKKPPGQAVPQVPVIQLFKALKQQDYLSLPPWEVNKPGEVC
Tyk2 kinase domain (DH1), sequence (P29597 897-1176): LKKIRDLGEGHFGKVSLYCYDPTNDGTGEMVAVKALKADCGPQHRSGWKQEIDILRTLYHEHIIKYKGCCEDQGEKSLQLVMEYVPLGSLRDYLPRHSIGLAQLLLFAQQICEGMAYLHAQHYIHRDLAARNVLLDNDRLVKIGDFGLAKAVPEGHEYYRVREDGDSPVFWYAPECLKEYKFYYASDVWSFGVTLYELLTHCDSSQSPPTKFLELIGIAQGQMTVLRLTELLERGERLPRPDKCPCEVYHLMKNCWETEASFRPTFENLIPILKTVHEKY

Row | IC50 [1] | inhibition at 10 µM (JAK2 kinase domain (JH1)) | inhibition at 10 µM (Tyk2 kinase domain (DH1)) | Kd [2] | SMILES | JAK2 JH1% Inhibition @ 10 μM (JAK2 kinase domain (JH1)) | Tyk2 JH1% Inhibition @ 10 μM (Tyk2 kinase domain (DH1))
1 | > 2.5 µM | < 50% | < 50% | < 0.2 nM | CNc1cc(Nc2cccn([C@H]3CC[C@](C)(OC)CC3)c2=O)nc2c(C(=O)N[C@@H]3CC[C@H]3O)cnn12 [I-1107] |  | 
2 | > 50 µM | < 50% | < 50% | < 0.2 nM | CNc1cc(Nc2cccn([C@H]3CCC[C@H]3O)c2=O)nc2c(C(=O)NC3CC3)cnn12 [I-963] |  | 
3 | > 50 µM | < 50% | < 50% | < 0.2 nM | CNc1cc(Nc2cccn([C@@H]3CCCN(CCF)C3)c2=O)nc2c(C(=O)N[C@@H]3CC[C@H]3OC)cnn12 [I-1095] |  | 
4 | > 50 µM | < 50% | < 50% | < 0.2 nM | CNc1cc(Nc2cccn([C@H]3CCC[C@H](OC)C3)c2=O)nc2c(C(=O)NC3CC3)cnn12 [I-1025] |  | 
5 | > 50 µM | < 50% | < 50% | < 0.2 nM | CNc1cc(Nc2cccn([C@H]3CCC[C@H]3O)c2=O)nc2c(C(=O)N[C@@H]3C[C@@H]3F)cnn12 [I-965] |  | 
6 | > 12.5 µM | < 50% | < 50% | < 0.2 nM | CNc1cc(-c2cn(C(C)C)c3ncc(F)cc23)nc2c(C(=O)N[C@H]3CC[C@@H]3OC)cnn12 [I-1053, 5-(5-fluoro-1-isopropyl-1H-pyrrolo[2,3-b]pyridin-3-yl)-N-((1S,2S)-2-methoycyclobutyl)-7-(methylamino)pyrazolo[1,5-a]pyrimidine-3-carboxamide] |  | 
7 | > 12.5 µM | < 50% | < 50% | < 0.2 nM | CNc1cc(Nc2cccn(-c3cnco3)c2=O)nc2c(C(=O)N[C@H]3CC[C@H]3O)cnn12 [I-1017] |  | 
8 | > 50 µM | < 50% | < 50% | < 0.2 nM | CNc1cc(Nc2cccn([C@H]3CCCN(CCF)C3)c2=O)nc2c(C(=O)N[C@@H]3CC[C@H]3OC)cnn12 [I-1059] |  | 
9 | > 50 µM | < 50% | < 50% | < 0.2 nM | CNc1cc(Nc2cccn([C@H]3CCC[C@H](OC)C3)c2=O)nc2c(C(=O)NCC(C)(C)CO)cnn12 [I-1027] |  | 
10 | > 50 µM | < 50% | < 50% | < 0.2 nM | CNc1cc(Nc2cccn([C@@H]3CC[C@H]3O)c2=O)nc2c(C(=O)N[C@H]3CC[C@@H]3OC)cnn12 [I-1093] |  | 
11 | > 50 µM | < 50% | < 50% | < 0.2 nM | CNc1cc(Nc2cccn([C@@H]3CC[C@H]3O)c2=O)nc2c(C(=O)N[C@@H]3C[C@@H]3F)cnn12 [I-999] |  | 
12 | > 50 µM | < 50% | < 50% | < 0.2 nM | CNc1cc(Nc2cccc3ocnc23)nc2c(C(=O)NC3CC[C@@H]3OC)cnn12 (stereo partly shown) [I-1051, 5-(benzo[d]oxazol-4-ylamino)-N-(2-methoxycyclobutyl)-7-(methylamino) pyrazolo[1,5-a]pyrimidine-3-carboxamide] |  | 
13 | > 12.5 µM |  |  | < 0.2 nM | CNc1cc(Nc2cccn(-c3cccc(F)c3)c2=O)nc2c(C(=O)N[C@H]3CC[C@H]3O)cnn12 [I-1004] | A (percent inhibition at 10 μM lower than 50) | A (percent inhibition at 10 μM lower than 50)
14 | > 50 µM | < 50% | < 50% | < 0.2 nM | CNc1cc(Nc2cccn(-c3ccccc3F)c2=O)nc2c(C(=O)N[C@H]3CC[C@@H]3O)cnn12 [I-1038] |  | 
15 | > 50 µM | < 50% | < 50% | < 0.2 nM | CNc1cc(Nc2cccn([C@@H]3CCC[C@H](OC)C3)c2=O)nc2c(C(=O)N[C@@H]3CC[C@H]3OC)cnn12 [I-1082] |  | 
16 | > 12.5 µM | < 50% | < 50% | < 0.2 nM | CNc1cc(-c2cn(C(C)C)c3ncc(F)cc23)nc2c(C(=O)N[C@H]3CC[C@H]3O)cnn12 [I-1013, 5-(5-fluoro-1-isopropyl-1-pyrrolo[2,3-b]pyridin-3-yl)-N-(2-hydroxycyclobutyl)-7-(methylamino)pyrazolo[1,5-a]pyrimidine-3-carboxamide] |  | 
17 | > 50 µM | < 50% | < 50% | < 0.2 nM | CNc1cc(Nc2cccn([C@@H]3CCC[C@@H](OC)C3)c2=O)nc2c(C(=O)N[C@H]3CC[C@@H]3OC)cnn12 [I-1099] |  | 

Row | IC50 [1] | inhibition at 10 µM (JAK2 kinase domain (JH1)) | inhibition at 10 µM (Tyk2 kinase domain (DH1)) | Kd [2] | SMILES | JAK2 JH1% Inhibition @ 10 μM (JAK2 kinase domain (JH1)) | Tyk2 JH1% Inhibition @ 10 μM (Tyk2 kinase domain (DH1))
18 | > 2.5 µM | < 50% | < 50% | < 0.2 nM | CNc1cc(-c2cn(C3CCOCC3)c3ncccc23)nc2c(C(=O)NC3CCC3O)cnn12 (stereo not shown) [I-1048, N-(2-hydroxycyclobutyl)-7-(methylamino)-5-(1-(tetrahydro-2H-pyran-4-yl)-1H-pyrrolo[2,3-b]pyridin-3-yl)pyrazolo[1,5-a]pyrimidine-3-carboxamide] |  | 
19 | > 50 µM | < 50% | < 50% | < 0.2 nM | CNc1cc(Nc2cccn(-c3ncc(C)s3)c2=O)nc2c(C(=O)N[C@@H]3CC[C@@H]3O)cnn12 [I-1073] |  | 
20 | > 50 µM | < 50% | < 50% | < 0.2 nM | CNc1cc(Nc2cccn([C@H]3CCN(CCF)C3)c2=O)nc2c(C(=O)N[C@H]3CC[C@@H]3OC)cnn12 [I-1050, 5-((1-((S)-1-(2-fluoroethyl)pyrrolidin-3-yl)-2-oxo-1,2-dihydropyridin-3-yl)amino)-N-((1 S,2S)-2-methoxycyclobutyl)-7-(methylamino)pyrazolo[1,5-a]pyrimidine-3-carboxamide] |  | 
21 | > 2.5 µM | < 50% | < 50% | < 0.2 nM | CNc1cc(Nc2cccn([C@H]3CCC[C@H](OC)C3)c2=O)nc2c(C(=O)N[C@@H]3CC3F)cnn12 (stereo partly shown) [I-1042] |  | 
22 | > 12.5 µM | < 50% | < 50% | < 0.2 nM | CNc1cc(-c2cn(C3CC3)c3ncccc23)nc2c(C(=O)N[C@H]3CC[C@@H]3OC)cnn12 (stereo in doubt) [I-1067, 5-(1-cyclopropyl-1H-pyrrolo[2,3-b]pyridin-3-yl)-N-(2-methoxycyclobutyl)-7-(methylamino)pyrazolo[1,5-a]pyrimidine-3-carboxamide] |  | 
23 | > 50 µM | < 50% | < 50% | < 0.2 nM | CNc1cc(Nc2cccn([C@H]3CCC[C@H]3O)c2=O)nc2c(C(=O)N[C@H]3CC[C@@H]3OC)cnn12 [I-1101] |  | 
24 | > 2.5 µM | < 50% | < 50% | < 0.2 nM | CNc1cc(Nc2cccn([C@@H]3CCC[C@@H](O)C3)c2=O)nc2c(C(=O)N[C@@H]3C[C@@H]3F)cnn12 [I-1029] |  | 
25 | > 50 µM | < 50% | < 50% | < 0.2 nM | CNc1cc(Nc2cccn([C@H]3CCCC[C@H]3O)c2=O)nc2c(C(=O)NC3CC3)cnn12 [I-878] |  | 
26 | > 50 µM | < 50% | < 50% | < 0.2 nM | CNc1cc(Nc2cccn([C@H]3CCC[C@H](O)C3)c2=O)nc2c(C(=O)N[C@H]3CC[C@@H]3OC)cnn12 [I-1063] |  | 
27 | > 12.5 µM | < 50% | < 50% | < 0.2 nM | CNc1cc(Nc2cccn([C@@H]3CC[C@H]3OC)c2=O)nc2c(C(=O)N[C@@H]3C[C@@H]3F)cnn12 [I-1022] |  | 
28 | > 50 µM | < 50% | < 50% | < 0.2 nM | CNc1cc(Nc2cccn([C@H]3CCC[C@H](OC)C3)c2=O)nc2c(C(=O)NCC3(CO)CC3)cnn12 [I-1010] |  | 
29 | > 50 µM | < 50% | < 50% | < 0.2 nM | CNc1cc(Nc2cccn([C@H]3CCCC[C@H]3OC)c2=O)nc2c(C(=O)N[C@H]3CC[C@@H]3OC)cnn12 [I-1097] |  | 
30 | > 50 µM | < 50% | < 50% | < 0.2 nM | CNc1cc(Nc2cccn([C@H]3CCCC[C@H]3O)c2=O)nc2c(C(=O)N[C@@H]3CC[C@H]3OC)cnn12 [I-1057] |  | 
31 | > 50 µM |  |  | < 0.2 nM | CNc1cc(Nc2cccn([C@H]3CCC[C@@H](OC)C3)c2=O)nc2c(C(=O)N[C@H]3CC[C@@H]3OC)cnn12 [I-996] | A (percent inhibition at 10 μM lower than 50) | A (percent inhibition at 10 μM lower than 50)
32 | > 50 µM |  |  | < 0.2 nM | CNc1cc(Nc2cccn([C@H]3CC[C@](C)(OC)CC3)c2=O)nc2c(C(=O)N[C@@H]3CC[C@H]3O)cnn12 [I-962] | A (percent inhibition at 10 μM lower than 50) | A (percent inhibition at 10 μM lower than 50)
33 | > 50 µM | < 50% | < 50% | < 0.2 nM | CNc1cc(Nc2cccc(N3CCCC3=O)n2)nc2c(C(=O)N[C@H]3CC[C@H]3O)cnn12 [I-969] |  | 
34 | > 50 µM | < 50% | < 50% | < 0.2 nM | CNc1cc(Nc2cccn([C@H]3CCC[C@H](OC)C3)c2=O)nc2c(C(=O)N[C@H]3CC[C@@H]3OC)cnn12 [I-1098] |  | 
